Data on 6 compounds can be found in patent US11542271B2, “Fused heteroaromatic-aniline compounds for treatment of dermal disorders” (NFlection Therapeutics, Inc., priority 2017, dated 2023).

Where two headings read alike, the source gives them in different places.

For one series, the system named is HCT116 cells. The series is described as follows: HCT116 (Kras) GI50 cell-based assay (Cell Titer-Glo). The settings on record: Homo sapiens, HCT-116, 72 hours, read-out: Assay 3: HCT116 (Kras) GI50. The procedure: (§1) Alternatively, the following procedure can be used to measure cell-based activity. Test compounds were dissolved in DMSO in 10 mM stock. Cell Titer-Glo® 2.0 Luminescent cell viability assay reagent was purchased from Promega (Madison, Wis.). A375 and HCT116 cell lines were purchased from American Type Culture Collection (Manassas, Va.). For A375 cells, cell culture media was DMEM+10% FBS. For HCT116 cells, cell culture media was McCoy's 5A+10% FBS. All media were supplemented with 100 μg/mL of penicillin, and 100 μg/mL of streptomycin. Cultures were maintained at 37° C. in a humidified atmosphere of 5% CO2 and 95% air.
(§2) Test compounds were diluted in DMSO solution with 10-dose and 3-fold dilutions in a source plate starting at 10 mM. […] Luminescence was recorded by Envision 2104 Multilabel Reader (PerkinElmer, Santa Clara, Calif.). The number of viable cells in culture was determined based on quantitation of the ATP present in each culture well. […] Luminescence was recorded by Envision 2104 Multilabel Reader (PerkinElmer, Santa Clara, Calif.). The number of viable cells in culture was determined based on quantitation of the ATP present in each culture well. […] All parameters in the equation were calculated by GraphPad Prism 4 program. […] Accordingly, GI50 is the value of 10^X, where X was calculated by the Curve Fitting Equation when Y=50 using Excel.
Background: Cellular ATP, detected with luciferase, serves as a proxy for viable cell number.

Another series addresses T1, MEK1 (Homo sapiens, UniProt Q02750).
T1 construct: N-terminal His-tagged recombinant human full length protein, expressed in insect cells; His (N); purchased Invitrogen PV3303; host or cells: insect cells
The series can be described thus: MEK Inhibition Assay (Biological Example 1a, 33P-ATP, P81 filter-binding). As to conditions: Biological Example 1a (used for compounds 2 and 6); read-out: Assay 1: biochemical MEK IC50. The procedure:
MEK1 inhibitory activity of compounds were tested using the following procedure.
• Reaction buffer: 20 mM Hepes (pH 7.5), 10 mM MgCl2, 1 mM EGTA, 0.02% Brij35, 0.02 mg/mL bovine serum albumin, 0.1 mM Na3V04, 2 mM DTT, 1% DMSO • Enzyme: MEK1, Invitrogen cat #PV3303 • N-terminal His-tagged recombinant human full length protein, expressed in insect cells. Activated in vitro by RAF1. MW=49.2 kDa, GenBank Accession No. NP_002746. • Substrate: 5 μM ERK2 (K52R), • Kinase-dead mutant, (GenBank Accession No. NM_0011949), aa2-358 with N-terminal His6 tag, MW=43.63 kDa, expressed in E. coli.
The substrate was prepared in freshly prepared Reaction Buffer. The kinase was delivered into the substrate solution and gently mixed. Test compounds were delivered in 100% DMSO into the kinase reaction mixture by Acoustic technology (Echo550; nanoliter range), and incubated for 20 min at room temperature. ^33P-ATP was delivered into the reaction mixture to initiate the reaction. The reaction mixture was incubated for 2 hours at room temperature. Kinase activity was detected by P81 filter-binding method.

The subject of the next series is A375 cells. The series is described as follows: A375 (BRAF) GI50 cell-based assay (Cell Titer-Glo). As to conditions: Homo sapiens, A-375, 72 hours, read-out: Assay 2: A375 (BRAF) GI50. As for the experimental part: as §1, §2
Series [1] in a line: S9 Stability Assay, human liver S9 fraction. The series is classed as in vitro ADME. The settings on record: for half-life at 1 μM / microsomal CLint at 1 μM: human liver S9 fraction, pH 7.4. As for the experimental part:
Compounds were assessed for metabolic stability in human skin by assessing their rate of disappearance from human S9 skin fraction. Similarly, compounds were assessed for metabolic stability in human liver by assessing their rate of disappearance from human S9 liver fraction. The protocol below can be used to assess the difference between skin and hepatic metabolism.
The assay was carried out in 96-well microtiter plates at 37° C. Reaction mixtures (25 μL) contained a final concentration of 1 μM test compound, 2 mg/mL liver or skin S9 protein, and 1 mM NADPH in buffer (100 mM potassium phosphate, pH 7.4 buffer with 1 mM EDTA, 3 mM MgCl2). At each of the time points (0, 15, 30, and 60 minutes), 150 μL of quench solution (100% acetonitrile with 0.1% formic acid) with internal standard was transferred to each well. Besides the zero minute controls, mixtures containing the same components except the NADPH were also prepared as the negative control. Verapamil or testosterone was included as a positive control to verify assay performance. Plates were sealed and centrifuged at 4° C. for 15 minutes at 4000 rpm. The supernatant was transferred to fresh plates for LC/MS/MS analysis.
All samples were analyzed on LC/MS/MS using an AB Sciex API 4000 instrument, coupled to a Shimadzu LC-20AD LC Pump system. Analytical samples were separated using a Waters Atlantis T3 dC18 reverse phase HPLC column (20 mm×2.1 mm) at a flow rate of 0.5 mL/min. The mobile phase consisted of 0.1% formic acid in water (solvent A) and 0.1% formic acid in 100% acetonitrile (solvent B).
The extent of metabolism was calculated as the disappearance of the test compound, compared to the 0-min control reaction incubations. Initial rates were calculated for the compound concentration and used to determine t1/2 values and subsequently, the intrinsic clearance, CLint=(0.693) (1/t1/2 (min)) (mL incubation/mg of S9 protein).

The target of a further series is T2, MAP2K1 (MEK1) (Homo sapiens, UniProt Q02750).
T2 construct: purchased ThermoFisher
The series is described as follows: MEK Inhibition Assay (Biological Example 1b, Z'-LYTE). As to conditions: Biological Example 1b (compounds 1, 3, 5, 7-8); read-out: Assay 1: biochemical MEK IC50. The procedure: MEK1 inhibitory activity of compounds were tested using the following procedure (protocol available at thermofisher.com/content/dam/LifeTech/migration/files/drug-discovery/pdfs.par.60256.file.dat/20130430%20ssbk%20customer%20protocol%20and%20assay%20conditions.pdf). The Z′-LYTE biochemical assay (ThermoFisher) employs a fluorescence-based, coupled-enzyme format and is based on the differential sensitivity of phosphorylated and non-phosphorylated peptides to proteolytic cleavage.
Test compounds in 100% DMSO were screened in 1% DMSO (final) in the well. For 10 point titrations, 3-fold serial dilutions are conducted from the starting concentration of 30 μM.
After the 1 hour incubation, 5 μL of a 1:1024 dilution of Development Reagent A (available from Invitrogen, catalog no. PV3295) was added.
ATP solutions were diluted to a 4× working concentration in Kinase Buffer (50 mM HEPES pH 7.5, 0.01% BRIJ-35, 10 mM MgCl2, 1 mM EGTA). ATP Km apparent was previously determined using a Z′-LYTE assay. The Development Reagent was diluted in Development Buffer (available from Invitrogen, catalog no. P3127).
Assay Protocol: 2.5 μL of 4× test compound or 100 nL of 100× Test Compound plus 2.4 μL Kinase Buffer, 5 μL of the 2× Peptide/Kinase Mixture, 2.5 μL of 4×ATP Solution were added to the plates and placed on a shake plate for 30-seconds. The kinase reaction was allowed to proceed for 60-minute at room temperature, before 5 μL of Development Reagent Solution was added, and the mixture agitated for 30-seconds on a shake plate. The mixture was incubated for 60-minute at room temperature. Fluorescence was measured using a plate reader and the data were analyzed.
This control yielded 100% cleaved peptide in the Development Reaction. The 100% Phosphorylation Control, which consisted of a synthetically phosphorylated peptide of the same sequence as the peptide substrate, was designed to allow for the calculation of percent phosphorylation. This control yielded a very low percentage of cleaved peptide in the Development Reaction. The 0% Phosphorylation and 100% Phosphorylation Controls allow for the calculation of the percent phosphorylation achieved in a specific reaction well.
The minimum emission ratio in a screen was established by the 0% Inhibition Control, which contained active kinase. This control was designed to produce a 10-50% phosphorylated peptide in the Kinase Reaction. Cascade assays may produce up to 70% phosphorylated peptide.
A known inhibitor control standard curve, 10 point titration, was run for each individual kinase on the same plate as the kinase to ensure the kinase was inhibited within an expected IC50 range previously determined.
The following controls are prepared for each concentration of Test Compound assayed. […] The expected value for a non-interfering compound should be 100%. Any value outside of 90% to 110% was flagged. […] The expected value for a non-fluorescence compound should be 0%. Any value >20% was flagged.
The data in Table A was calculated. XLfit from IDBS was used. The dose response curve was curve fit to model number 205 (sigmoidal dose-response model).

The mark [2] stands for this setting: human liver S9, unit min printed in b472 and Table 1, not in this table, read-out: Assay 4: human liver S9 half-life.
Setting [3] is: human, read-out: Assay 5: human liver S9 intrinsic clearance value (μL/min/mg protein).

T2 sequence (Q02750 whole entry): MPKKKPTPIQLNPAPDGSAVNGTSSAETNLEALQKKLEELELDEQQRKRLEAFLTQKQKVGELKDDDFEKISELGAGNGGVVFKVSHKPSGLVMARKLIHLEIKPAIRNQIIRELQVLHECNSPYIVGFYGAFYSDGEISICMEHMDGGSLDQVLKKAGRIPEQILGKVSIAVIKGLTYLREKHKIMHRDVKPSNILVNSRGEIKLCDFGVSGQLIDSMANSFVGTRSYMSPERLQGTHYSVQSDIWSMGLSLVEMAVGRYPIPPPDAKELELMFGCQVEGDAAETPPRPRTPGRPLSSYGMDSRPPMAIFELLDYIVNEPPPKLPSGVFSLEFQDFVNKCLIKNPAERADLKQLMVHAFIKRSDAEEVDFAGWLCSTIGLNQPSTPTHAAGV
T1 sequence (Q02750 whole entry): as above

For the compound `CSc1ccc(Nc2sc3ncccc3c2C(=O)NOCCO)c(F)c1` [Ex. 2, 2-((2-fluoro-4-(methylthio)phenyl)amino)-N-(2-hydroxyethoxy)thieno[2,3-b]pyridine-3-carboxamide], the GI50 came out at 257 nM in the series with HCT116 cells and 145 nM in the series on A375 cells. For the same compound, the IC50 on MEK1 is 915 nM. Also, the half-life at 1 μM in series [1] (setting [2]) came to 16 min. Besides, the microsomal CLint at 1 μM in series [1] (setting [3]) stood at 21.2 µL/min/mg.
Consider `C#Cc1ccc(Nc2sc3ncccc3c2C(=O)NOCCO)c(F)c1` [Ex. 1, 2-((4-ethynyl-2-fluorophenyl)amino)-N-(2-hydroxyethoxy)thieno[2,3-b]pyridine-3-carboxamide], for which the GI50 with HCT116 cells is 348 nM; in the series on A375 cells, 141 nM. Besides, on MAP2K1 (MEK1), the IC50 came to 1030 nM. Also, the half-life at 1 μM in series [1] (setting [2]) was found to be 29 min. The microsomal CLint at 1 μM in series [1] (setting [3]) was found to be 11.8 µL/min/mg.
With `O=C(NOCCO)c1c(Nc2ccc(I)cc2F)sc2ncccc12` [Ex. 3, 2-((2-Fluoro-4-iodophenyl)amino)-N-(2-hydroxyethoxy)thieno[2,3-b]pyridine-3-carboxamide], the IC50 on MAP2K1 (MEK1) stood at 74 nM. The “Assay 5: human liver S9 intrinsic clearance value (μL/min/mg protein)” value in series [1] (human liver S9) turned out to be 13.35 μL/min/mg protein. The half-life at 1 μM in series [1] (Table 1, 1 μM test compound, 2 mg/mL S9 protein, NADPH, read-out: Liver S9 t1/2) was found to be 26 min. Also, the microsomal CLint at 1 μM in series [1] (Table 1, read-out: CLint (μL/min/mg protein)) was found to be 13.3 µL/min/mg.
`COc1ccc2c(C(=O)NOCCO)c(Nc3ccc(I)cc3F)sc2n1` [Ex. 6, 2-((2-fluoro-4-iodophenyl)amino)-N-(2-hydroxyethoxy)-6-methoxythieno[2,3-b]pyridine-3-carboxamide]: on MEK1, the 50% inhibitory concentration (IC50) worked out at 2910 nM.
Turning to `COc1cnc2sc(Nc3ccc(I)cc3F)c(C(=O)NOCCO)c2c1` [Ex. 7, 2-((2-Fluoro-4-iodophenyl)amino)-N-(2-hydroxyethoxy)-5-methoxythieno[2,3-b]pyridine-3-carboxamide], on MAP2K1 (MEK1), the half-inhibitory concentration (IC50) stood at 150 nM. In series [1] (setting [2]), the half-life at 1 μM was 68 min. Also, the microsomal CLint at 1 μM in series [1] (setting [3]) is 5.1 µL/min/mg.
On the same counts, the results for `Cc1ccc2c(C(=O)NOCCO)c(Nc3ccc(I)cc3F)sc2n1` [Ex. 5, 2-((2-Fluoro-4-iodophenyl)amino)-N-(2-hydroxyethoxy)-6-methylthieno[2,3-b]pyridine-3-carboxamide] are 256 nM, 54 min and 6.36 µL/min/mg.

One may read the GI50 as the concentration giving 50% growth inhibition. As a reminder, the IC50 is the midpoint of a concentration-inhibition curve.
